Source: patent publication US11952363B2, “Piperazine compounds for the treatment of autoimmune disease” (Hoffmann-La Roche Inc., priority 2018, dated 2024)

Columns and labels:
human TLR8 = molecular target: T1, human TLR8 (Homo sapiens, UniProt Q9NR97); assay: HEK293-Blue-hTLR-8 cells assay (SEAP reporter, R848 stimulation); assay type: cell-based; details: HEK293-Blue-hTLR8 cells, R848 ligand, 20 hrs incubation; read-out: HEK/hTLR8 IC50
T1 sequence (Q9NR97 27-1041): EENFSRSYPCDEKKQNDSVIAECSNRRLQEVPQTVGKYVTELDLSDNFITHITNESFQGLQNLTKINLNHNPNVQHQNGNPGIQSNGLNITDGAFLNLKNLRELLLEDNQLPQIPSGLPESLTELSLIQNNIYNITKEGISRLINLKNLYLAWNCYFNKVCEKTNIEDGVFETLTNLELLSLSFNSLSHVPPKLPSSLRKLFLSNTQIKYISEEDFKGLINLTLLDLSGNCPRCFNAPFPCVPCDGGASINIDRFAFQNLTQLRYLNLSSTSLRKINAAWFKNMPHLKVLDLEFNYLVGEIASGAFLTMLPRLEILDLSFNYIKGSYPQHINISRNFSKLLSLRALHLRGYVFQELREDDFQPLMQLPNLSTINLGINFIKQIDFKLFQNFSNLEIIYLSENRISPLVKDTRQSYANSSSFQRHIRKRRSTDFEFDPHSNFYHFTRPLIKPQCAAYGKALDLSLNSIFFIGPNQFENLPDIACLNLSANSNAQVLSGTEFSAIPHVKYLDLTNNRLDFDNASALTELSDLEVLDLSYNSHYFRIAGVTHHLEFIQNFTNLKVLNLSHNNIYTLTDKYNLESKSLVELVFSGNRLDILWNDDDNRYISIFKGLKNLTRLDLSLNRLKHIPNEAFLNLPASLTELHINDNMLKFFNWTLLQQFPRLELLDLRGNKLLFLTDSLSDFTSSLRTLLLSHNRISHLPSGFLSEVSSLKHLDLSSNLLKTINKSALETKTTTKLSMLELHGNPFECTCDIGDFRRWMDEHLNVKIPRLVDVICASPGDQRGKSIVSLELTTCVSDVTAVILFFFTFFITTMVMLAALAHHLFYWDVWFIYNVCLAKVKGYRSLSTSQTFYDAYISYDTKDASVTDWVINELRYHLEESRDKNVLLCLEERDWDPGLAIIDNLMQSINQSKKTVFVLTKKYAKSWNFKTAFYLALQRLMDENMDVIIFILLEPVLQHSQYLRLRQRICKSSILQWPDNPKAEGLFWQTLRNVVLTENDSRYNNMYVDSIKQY
Description: The following tests were carried out in order to determine the activity of the compounds of formula (I) in HEK293-Blue-hTLR-7/8/9 cells assay.
A stable HEK293-Blue-hTLR-8 cell line was purchased from InvivoGen (Cat.#: hkb-htlr8, San Diego, California, USA). These cells were originally designed for studying the stimulation of human TLR8 by monitoring the activation of NF-κB. A SEAP (secreted embryonic alkaline phosphatase) reporter gene was placed under the control of the IFN-β minimal promoter fused to five NF-κB and AP-1-binding sites. The SEAP was induced by activating NF-κB and. AP-1 via stimulating HEK-Blue hTLR8 cells with TLR8 ligands. Therefore the reporter expression was declined by TLR8 antagonist under the stimulation of a ligand, such as R848, for incubation of 20 hrs. The cell culture supernatant SEAP reporter activity was determined using QUANTI-Blue™ kit (Cat.#: rep-qb1, Invivogen, San Diego, Ca, USA) at a wavelength of 640 nm, a detection medium that tunas purple or blue in the presence of alkaline phosphatase.
HEK293-Blue-hTLR8 cells were incubated at a density of 250,000˜450,000 cells/mL in a volume of 170 μL in a 96-well plate in Dulbecco's Modified Eagle's medium (DMEM) containing 4.5 g/L glucose, 50 U/mL penicillin, […], […], 2 mM L-glutamine, 10% (v/v) heat-inactivated fetal bovine serum with addition of 20 μL test compound in a serial dilution in the presence of final DMSO at 1% and 10 μL of 60 uM R848 in above DMEM, perform incubation under 37° C. in a CO2 incubator for 20 hrs. Then 20 μL of the supernatant from each well was incubated with […] Quanti-blue substrate solution at 37° C. for 2 hrs and the absorbance was read at 620-655 nm using a spectrophotometer. The signalling pathway that TLR8 activation leads to downstream NF-κB activation has been widely accepted, and therefore similar reporter assay was modified for evaluating TLR8 antagonist.

hERG = molecular target: T2, hERG (Homo sapiens, UniProt Q12809); assay: hERG channel inhibition assay (patch-clamp, CHO hERG cells); assay type: cell-based
T2 construct: expressed in transfected cells
T2 sequence (Q12809 whole entry): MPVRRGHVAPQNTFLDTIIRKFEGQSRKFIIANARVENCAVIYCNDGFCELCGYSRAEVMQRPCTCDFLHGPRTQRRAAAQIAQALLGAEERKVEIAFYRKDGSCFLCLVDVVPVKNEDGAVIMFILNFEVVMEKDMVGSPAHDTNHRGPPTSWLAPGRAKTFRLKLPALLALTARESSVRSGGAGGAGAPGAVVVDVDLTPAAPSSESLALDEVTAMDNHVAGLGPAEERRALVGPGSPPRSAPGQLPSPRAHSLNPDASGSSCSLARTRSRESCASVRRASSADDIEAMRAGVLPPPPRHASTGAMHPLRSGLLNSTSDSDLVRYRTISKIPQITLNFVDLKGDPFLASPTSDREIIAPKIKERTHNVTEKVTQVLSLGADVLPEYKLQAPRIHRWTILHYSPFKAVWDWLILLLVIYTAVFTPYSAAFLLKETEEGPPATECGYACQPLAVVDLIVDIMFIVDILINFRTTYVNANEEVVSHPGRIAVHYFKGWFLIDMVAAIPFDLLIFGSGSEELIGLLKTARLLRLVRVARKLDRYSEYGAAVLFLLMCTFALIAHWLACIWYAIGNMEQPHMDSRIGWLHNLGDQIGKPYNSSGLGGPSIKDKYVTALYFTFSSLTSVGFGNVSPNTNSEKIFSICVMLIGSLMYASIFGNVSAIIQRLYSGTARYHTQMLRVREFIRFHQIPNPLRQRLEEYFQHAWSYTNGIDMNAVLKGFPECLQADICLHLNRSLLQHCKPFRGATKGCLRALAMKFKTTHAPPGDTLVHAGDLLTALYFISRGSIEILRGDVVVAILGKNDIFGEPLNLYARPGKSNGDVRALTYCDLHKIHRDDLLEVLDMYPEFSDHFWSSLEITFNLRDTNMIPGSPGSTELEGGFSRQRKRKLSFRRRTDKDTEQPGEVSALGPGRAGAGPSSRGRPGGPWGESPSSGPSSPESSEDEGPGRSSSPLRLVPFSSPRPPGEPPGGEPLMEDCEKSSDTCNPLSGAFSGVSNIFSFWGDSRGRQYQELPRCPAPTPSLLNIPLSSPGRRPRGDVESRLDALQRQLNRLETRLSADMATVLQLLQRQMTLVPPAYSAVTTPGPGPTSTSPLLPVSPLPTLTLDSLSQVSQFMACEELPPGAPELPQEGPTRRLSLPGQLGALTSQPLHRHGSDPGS
Description: The hERG K^+ channels were cloned in humans and stably expressed in a CHO (Chinese hamster ovary) cell line. CHOhERG cells were used for patch-clamp (voltage-clamp, whole-cell) experiments. Cells were stimulated by a voltage pattern to activate hERG channels and conduct I KhERG currents (rapid delayed outward rectifier potassium current of the hERG channel). After the cells were stabilized for a few minutes, the amplitude and kinetics of I KhERG were recorded at a stimulation frequency of 0.1 Hz (6 bpm). Thereafter, the test compound was added to the preparation at increasing concentrations. For each concentration, an attempt was made to reach a steady-state effect, usually, this was achieved within 3-10 min at which time the next highest concentration was applied. The amplitude and kinetics of IKhERG are recorded in each concentration of the drug which were compared to the control values (taken as 100%). […]

[1] = safety ratio, >30 suggests sufficient window

IC50 (human TLR8): 0.031 µM
Structure (SMILES): C[C@@H]1CN(c2ccc(C#N)c3ncccc23)C[C@H](C)N1Cc1ccc(N2CCNCC2)nc1 [Example 3, 5-[(3R,5S)-3,5-Dimethyl-4-[(6-piperazin-1-yl-3-pyridyl)methyl]piperazin-1-yl]quinoline-8-carbonitrile]
IC50 (hERG; CHO hERG cells, whole-cell patch-clamp): > 20 µM | IC20 (hERG; human, CHO cells stably expressing hERG, CHO hERG cells, whole-cell patch-clamp): 7.4 µM | hERG IC20/TLR7 IC50 (hERG; [1]): 383 | hERG IC20/TLR8 IC50 (hERG; [1]): 240 | hERG IC20/TLR9 IC50 (hERG; [1]): 79
